Experimental data as given in patent publication US20090018166A1, “New Pyridine Analogues X 161” (ASTRAZENECA AB, priority 2007, published 2009).

Biological target: T1, P2Y12 receptor (Homo sapiens, UniProt Q9H244)
T1 construct: expressed in transfected cells; host or cells: CHO cells (membranes)
Experiment: Functional inhibition of 2-Me-S-ADP induced P2Y12 signalling (35S-GTPγS binding, membranes from P2Y12 transfected CHO-cells)
Type: biochemical
Details: 35S-GTPγS, EC80 of 2-methyl-thio-adenosine diphosphate, P2Y12 CHO membranes; value given in each example; read-out: GTPγS(IC50 μM)
Description: Functional inhibition of- the P2Y12 receptor can be measured by in vitro assays using cell membranes from P2Y12 transfected CHO-cells, the methodology is indicated below.
Functional inhibition of 2-Me-S-ADP induced P2Y12 signalling: 5 μg of membranes were diluted in 200 μl of 200 mM NaCl, 1 mM MgCl2, 50 mM HEPES (pH 7.4), 0.01% BSA, 30 μg/ml saponin and 10 μM GDP. To this was added an EC80 concentration of agonist (2-methyl-thio-adenosine diphosphate), the required concentration of test compound and 0.1 μCi ^35S-GTPγS. The reaction was allowed to proceed at 30° C. for 45 min. Samples were then transferred on to GF/B filters using a cell harvester and washed with wash buffer (50 mM Tris (pH 7.4), 5 mM MgCl2, 50 mM NaCl). Filters were then covered with scintilant and counted for the amount of ^35S-GTPγS retained by the filter. Maximum activity was that determined in the presence of the agonist and minimum activity in the absence of the agonist following subtraction of the value determined for non-specific activity. The effect of compounds at various concentrations was plotted according to the equation
y=A+((B−A)/(1+((C/x)̂D)))
and IC50 estimated where A is the bottom plateau of the curve i.e. the final minimum y value B is the top of the plateau of the curve i.e. the final maximum y value C is the x value at the middle of the curve. This represents the log EC50 value when A+B=100 D is the slope factor. x is the original known x values. Y is the original known y values.

T1 sequence (Q9H244 whole entry): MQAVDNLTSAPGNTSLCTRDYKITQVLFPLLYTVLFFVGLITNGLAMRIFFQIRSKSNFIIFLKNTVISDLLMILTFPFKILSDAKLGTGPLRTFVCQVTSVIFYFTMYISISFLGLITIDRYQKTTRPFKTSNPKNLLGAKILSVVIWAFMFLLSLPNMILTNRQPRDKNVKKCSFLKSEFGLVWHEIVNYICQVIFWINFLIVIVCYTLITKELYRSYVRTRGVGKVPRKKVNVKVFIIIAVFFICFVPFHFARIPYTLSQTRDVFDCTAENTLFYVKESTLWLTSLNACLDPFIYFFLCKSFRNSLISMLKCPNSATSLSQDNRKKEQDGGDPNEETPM

Row | SMILES | IC50 [µM]
1 | CCCCC(=O)c1cc(C#N)c(N2CCC(C(=O)NS(=O)(=O)N(C)c3ccccc3)CC2)nc1CN1CCCC1=O [Example 22, 1-{3-Cyano-6-[(2-oxopyrrolidin-1-yl)methyl]-5-pentanoylpyridin-2-yl}-N-{[methyl(phenyl)amino]sulfonyl}piperidine-4-carboxamide] | 0.017
2 | CN(c1ccccc1)S(=O)(=O)NC(=O)C1CCN(c2nc(CN3CCCC3=O)c(C(=O)C3CC3)cc2C#N)CC1 [Example 23, 1-{3-Cyano-5-(cyclopropylcarbonyl)-6-[(2-oxopyrrolidin-1-yl)methyl]pyridin-2-yl}-N-{[methyl(phenyl)amino]sulfonyl}piperidine-4-carboxamide] | 0.042
3 | N#Cc1cc(C(=O)C2CC2)c(CN2CCCC2=O)nc1N1CCC(C(=O)NS(=O)(=O)CC2CCC2)CC1 [Example 24, 1-{3-Cyano-5-(cyclopropylcarbonyl)-6-[(2-oxopyrrolidin-1-yl)methyl]pyridin-2-yl}-N-[(cyclobutylmethyl)sulfonyl]piperidine-4-carboxamide] | 0.428
4 | CN(c1ccc(F)cc1)S(=O)(=O)NC(=O)C1CCN(c2nc(CN3CCCC3=O)c(C(=O)C3CC3)cc2C#N)CC1 [Example 25, 1-{3-Cyano-5-(cyclopropylcarbonyl)-6-[(2-oxopyrrolidin-1-yl)methyl]pyridin-2-yl}-N-{[(4-fluorophenyl)(methyl)amino]sulfonyl}piperidine-4-carboxamide] | 0.026
5 | C=CCCC(=O)c1cc(C#N)c(N2CCC(C(=O)NS(=O)(=O)Cc3ccccc3)CC2)nc1CN1CCCC1=O [Example 26, N-(benzylsulfonyl)-1-{3-cyano-6-[(2-oxopyrrolidin-1-yl)methyl]-5-pent-4-enoylpyridin-2-yl}piperidine-4-carboxamide] | 0.017
6 | C=CCCC(=O)c1cc(C#N)c(N2CCC(C(=O)NS(=O)(=O)CC3CCCC3)CC2)nc1CN1CCCC1=O [Example 27, 1-{3-cyano-6-[(2-oxopyrrolidin-1-yl)methyl]-5-pent-4-enoylpyridin-2-yl}-N-[(cyclopentylmethyl)sulfonyl]piperidine-4-carboxamide] | 0.02
7 | C=CCCC(=O)c1cc(C#N)c(N2CCC(C(=O)NS(=O)(=O)N(C)c3ccc(F)cc3)CC2)nc1CN1CCCC1=O [Example 28, 1-{3-cyano-6-[(2-oxopyrrolidin-1-yl)methyl]-5-pent-4-enoylpyridin-2-yl}-N-{[(4-fluorophenyl)(methyl)amino]sulfonyl}piperidine-4-carboxamide] | 0.022
8 | C=CCCC(=O)c1cc(C#N)c(N2CCC(C(=O)NS(=O)(=O)N(C)c3ccccc3)CC2)nc1CN1CCCC1=O [Example 29, 1-{3-cyano-6-[(2-oxopyrrolidin-1-yl)methyl]-5-pent-4-enoylpyridin-2-yl}-N-{[methyl(phenyl)amino]sulfonyl}piperidine-4-carboxamide] | 0.013
9 | CCCC(=O)c1cc(Cl)c(N2CCC(C(=O)NS(=O)(=O)Cc3ccccc3)CC2)nc1CN1CCCC1=O [Example 30, N-(Benzylsulfonyl)-1-{5-butyryl-3-chloro-6-[(2-oxopyrrolidin-1-yl)methyl]pyridin-2-yl}piperidine-4-carboxamide] | 0.062
10 | CCCC(=O)c1cc(Cl)c(N2CCC(C(=O)NS(=O)(=O)N(C)c3ccc(F)cc3)CC2)nc1CN1CCCC1=O [Example 31, 1-{5-Butyryl-3-chloro-6-[(2-oxopyrrolidin-1-yl)methyl]pyridin-2-yl}-N-{[(4-fluorophenyl)(methyl)amino]sulfonyl}piperidine-4-carboxamide] | 0.109
11 | CCCC(=O)c1cc(Cl)c(N2CCC(C(=O)NS(=O)(=O)Cc3ccc(C)cc3)CC2)nc1CN1CCCC1=O [Example 32, 1-{5-Butyryl-3-chloro-6-[(2-oxopyrrolidin-1-yl)methyl]pyridin-2-yl}-N-[(4-methylbenzyl)sulfonyl]piperidine-4-carboxamide] | 0.055
12 | CCCC(=O)c1cc(C#N)c(N2CCC(C(=O)NS(=O)(=O)N(C)c3ccc(F)cc3)CC2)nc1CN1CCCC1=O [Example 33, 1-{5-Butyryl-3-cyano-6-[(2-oxopyrrolidin-1-yl)methyl]pyridin-2-yl}-N-{[(4-fluorophenyl)(methyl)amino]sulfonyl}piperidine-4-carboxamide] | 0.011
13 | CCCC(=O)c1cc(C#N)c(N2CCC(C(=O)NS(=O)(=O)N(C)c3ccccc3)CC2)nc1CN1CCCC1=O [Example 34, 1-{5-Butyryl-3-cyano-6-[(2-oxopyrrolidin-1-yl)methyl]pyridin-2-yl}-N-{[methyl(phenyl)amino]sulfonyl}piperidine-4-carboxamide] | 0.012
14 | CCCC(=O)c1cc(C#N)c(N2CCC(C(=O)NS(=O)(=O)Cc3ccc(OC)cc3)CC2)nc1CN1CCCC1=O [Example 35, 1-{5-Butyryl-3-cyano-6-[(2-oxopyrrolidin-1-yl)methyl]pyridin-2-yl}-N-[(4-methoxybenzyl)sulfonyl]piperidine-4-carboxamide] | 0.0097
15 | CCCC(=O)c1cc(C#N)c(N2CCC(C(=O)NS(=O)(=O)CC3CCCCC3)CC2)nc1CN1CCCC1=O [Example 36, 1-{5-Butyryl-3-cyano-6-[(2-oxopyrrolidin-1-yl)methyl]pyridin-2-yl}-N-[(cyclohexylmethyl)sulfonyl]piperidine-4-carboxamide] | 0.014
16 | CCCC(=O)c1cc(C#N)c(N2CCC(C(=O)NS(=O)(=O)Nc3ccc(F)cc3)CC2)nc1CN1CCCC1=O [Example 37, 1-{5-Butyryl-3-cyano-6-[(2-oxopyrrolidin-1-yl)methyl]pyridin-2-yl}-N-{[(4-fluorophenyl)amino]sulfonyl}piperidine-4-carboxamide] | 0.019
17 | CCCC(=O)c1cc(C#N)c(N2CCC(C(=O)NS(=O)(=O)Nc3ccccc3)CC2)nc1CN1CCCC1=O [Example 38, N-(Anilinosulfonyl)-1-{5-butyryl-3-cyano-6-[(2-oxopyrrolidin-1-yl)methyl]pyridin-2-yl}piperidine-4-carboxamide] | 0.033
18 | C=CCCC(=O)c1cc(C#N)c(N2CCC(C(=O)NS(=O)(=O)Cc3ccc(C)cc3)CC2)nc1CN1CCCC1=O [Example 40, 1-{3-cyano-6-[(2-oxopyrrolidin-1-yl)methyl]-5-pent-4-enoylpyridin-2-yl}-N-[(4-methylbenzyl)sulfonyl]piperidine-4-carboxamide] | 0.0081
19 | C=CCCC(=O)c1cc(C#N)c(N2CCC(C(=O)NS(=O)(=O)Cc3ccc(F)cc3F)CC2)nc1CN1CCCC1=O [Example 41, 1-{3-cyano-6-[(2-oxopyrrolidin-1-yl)methyl]-5-pent-4-enoylpyridin-2-yl}-N-[(2,4-difluorobenzyl)sulfonyl]piperidine-4-carboxamide] | 0.009
20 | N#Cc1cc(C(=O)CCC(F)(F)F)c(CN2CCCC2=O)nc1N1CCC(C(=O)NS(=O)(=O)Cc2ccc(F)cc2F)CC1 [Example 42, 1-{3-Cyano-6-[(2-oxopyrrolidin-1-yl)methyl]-5-(4,4,4-trifluorobutanoyl)pyridin-2-yl}-N-[(2,4-difluorobenzyl)sulfonyl]piperidine-4-carboxamide] | 0.016
21 | Cc1ccc(CS(=O)(=O)NC(=O)C2CCN(c3nc(CN4CCCC4=O)c(C(=O)CCC(F)(F)F)cc3C#N)CC2)cc1 [Example 43, 1-{3-cyano-6-[(2-oxopyrrolidin-1-yl)methyl]-5-(4,4,4-trifluorobutanoyl)pyridin-2-yl}-N-[(4-methylbenzyl)sulfonyl]piperidine-4-carboxamide] | 0.019
22 | N#Cc1cc(C(=O)CCC(F)(F)F)c(CN2CCCC2=O)nc1N1CCC(C(=O)NS(=O)(=O)CC2CCCC2)CC1 [Example 44, 1-{3-cyano-6-[(2-oxopyrrolidin-1-yl)methyl]-5-(4,4,4-trifluorobutanoyl)pyridin-2-yl}-N-[(cyclopentylmethyl)sulfonyl]piperidine-4-carboxamide] | 0.146
23 | CN(c1ccc(F)cc1)S(=O)(=O)NC(=O)C1CCN(c2nc(CN3CCCC3=O)c(C(=O)CCC(F)(F)F)cc2C#N)CC1 [Example 45, 1-{3-cyano-6-[(2-oxopyrrolidin-1-yl)methyl]-5-(4,4,4-trifluorobutanoyl)pyridin-2-yl}-N-{[(4-fluorophenyl)(methyl)amino]sulfonyl}piperidine-4-carboxamide] | 0.05
24 | CCCCC(=O)c1cc(C#N)c(N2CCC(C(=O)NS(=O)(=O)Nc3ccc(F)cc3)CC2)nc1CN1CCCC1=O [Example 46, 1-{3-cyano-6-[(2-oxopyrrolidin-1-yl)methyl]-5-pentanoylpyridin-2-yl}-N-{[(4-fluorophenyl)amino]sulfonyl}piperidine-4-carboxamide] | 0.021
25 | CCCCC(=O)c1cc(C#N)c(N2CCC(C(=O)NS(=O)(=O)Cc3ccc(C#N)cc3)CC2)nc1CN1CCCC1=O [Example 47, N-[(4-cyanobenzyl)sulfonyl]-1-{3-cyano-6-[(2-oxopyrrolidin-1-yl)methyl]-5-pentanoylpyridin-2-yl}piperidine-4-carboxamide] | 0.043
26 | CCCCC(=O)c1cc(C#N)c(N2CCC(C(=O)NS(=O)(=O)CC3CCCCC3)CC2)nc1CN1CCCC1=O [Example 48, 1-{3-cyano-6-[(2-oxopyrrolidin-1-yl)methyl]-5-pentanoylpyridin-2-yl}-N-[(cyclohexylmethyl)sulfonyl]piperidine-4-carboxamide] | 0.023
